The source made the active and inactive calls. The calls are words filed in the database; no cut-off is given here.
Tests used:
HK-2 [1] = experiment: Cytotoxicity against TGFbeta-1-treated HK-2 cells assessed as decrease in cell viability at 1 to 5 uM incubated for 48 hrs by Cell Titer-Glo assay; format: toxicity, cell-based; conditions: human, hk-2, 48 h, dose 1-5 µM
HK-2 [2] = experiment: Anti-fibrotic activity in TGFbeta-1-treated HK-2 cells assessed as decrease in fibronectin level at 1 uM incubated for 24 to 48 hrs by Western blot analysis; format: functional, cell-based; conditions: Homo sapiens, time 24-48 hrs
HK-2 [3] = experiment: Anti-fibrotic activity in HK-2 cell model of 10 ng/ml TGFbeta-1-induced fibrosis injury assessed as vimentin mRNA level at 10 uM incubated for 24 to 48 hrs by qPCR analysis (reference value: 1.41 +/- 0.1); format: functional, Homo sapiens; conditions: time 24-48 hrs
HK-2 [4] = experiment: Anti-fibrotic activity in HK-2 cell model of 10 ng/ml TGFbeta-1-induced fibrosis injury assessed as Col4A1 mRNA level at 20 uM incubated for 24 to 48 hrs by qPCR analysis (reference value: 2.44 +/- 0.21); format: functional, Homo sapiens; conditions: time 24-48 hrs
HK-2 [5] = experiment: Anti-fibrotic activity in TGFbeta-1-treated HK-2 cells assessed as vimentin mRNA level at 10 uM incubated for 24 to 48 hrs by qPCR analysis (reference value: 1.88 +/- 0.48); format: functional, Homo sapiens; conditions: time 24-48 hrs
HK-2 [6] = experiment: Anti-fibrotic activity in TGFbeta-1-treated HK-2 cells assessed as fibronectin mRNA level at 10 uM incubated for 24 to 48 hrs by qPCR analysis (reference value: 6.88); format: functional, Homo sapiens; conditions: time 24-48 hrs
HK-2 [7] = experiment: Anti-fibrotic activity in TGFbeta-1-treated HK-2 cells assessed as decrease in Col4A1 level at 1 uM incubated for 24 to 48 hrs by Western blot analysis; format: functional, cell-based; conditions: Homo sapiens, time 24-48 hrs
HK-2 [8] = experiment: Anti-fibrotic activity in TGFbeta-1-treated HK-2 cells assessed as decrease in vimentin level at 1 uM incubated for 24 to 48 hrs by Western blot analysis; format: functional, cell-based; conditions: Homo sapiens, time 24-48 hrs
[9] = Cytotoxicity against TGFbeta-1-treated HK-2 cells assessed as cell viability at 10 uM incubated for 48 hrs by Cell Titer-Glo assay (Rvb ~ 80 %); format: toxicity, cell-based; conditions: human, read-out: Activity
HK-2 [10] = experiment: Anti-fibrotic activity in HK-2 cell model of 10 ng/ml TGFbeta-1-induced fibrosis injury assessed as Col4A1 mRNA level at 10 uM incubated for 24 to 48 hrs by qPCR analysis (reference value: 2.44 +/- 0.21); format: functional, Homo sapiens; conditions: time 24-48 hrs
HK-2 [11] = experiment: Anti-fibrotic activity in HK-2 cell model of 20 ng/ml TGFbeta-1-induced fibrosis injury assessed as vimentin mRNA level at 20 uM incubated for 24 to 48 hrs by qPCR analysis (reference value: 3.19 +/- 0.23); format: functional, Homo sapiens; conditions: time 24-48 hrs
HK-2 [12] = experiment: Anti-fibrotic activity in HK-2 cell model of 20 ng/ml TGFbeta-1-induced fibrosis injury assessed as Col4A1 mRNA level at 10 uM incubated for 24 to 48 hrs by qPCR analysis (reference value: 8.96 +/- 0.96); format: functional, Homo sapiens; conditions: time 24-48 hrs
HK-2 [13] = experiment: Anti-fibrotic activity in HK-2 cell model of 20 ng/ml TGFbeta-1-induced fibrosis injury assessed as Col4A1 mRNA level at 20 uM incubated for 24 to 48 hrs by qPCR analysis (reference value: 8.96 +/- 0.96); format: functional, Homo sapiens; conditions: time 24-48 hrs
HK-2 [14] = experiment: Anti-fibrotic activity in TGFbeta-1-treated HK-2 cells assessed as Col4A1 mRNA level at 10 uM incubated for 24 to 48 hrs by qPCR analysis (reference value: 2.35 +/- 0.38); format: functional, Homo sapiens; conditions: time 24-48 hrs
HK-2 [15] = experiment: Anti-fibrotic activity in HK-2 cell model of 20 ng/ml TGFbeta-1-induced fibrosis injury assessed as vimentin mRNA level at 10 uM incubated for 24 to 48 hrs by qPCR analysis (reference value: 3.19 +/- 0.23); format: functional, Homo sapiens; conditions: time 24-48 hrs
HK-2 [16] = experiment: Anti-fibrotic activity in HK-2 cell model of 10 ng/ml TGFbeta-1-induced fibrosis injury assessed as vimentin mRNA level at 20 uM incubated for 24 to 48 hrs by qPCR analysis (reference value: 1.41 +/- 0.1); format: functional, Homo sapiens; conditions: time 24-48 hrs
HK-2 [17] = experiment: Anti-fibrotic activity in TGFbeta-1-treated HK-2 cells assessed as decrease in alpha-SMA level at 1 uM incubated for 24 to 48 hrs by Western blot analysis; format: functional, cell-based; conditions: Homo sapiens, time 24-48 hrs
HK-2 [18] = experiment: Anti-fibrotic activity in TGFbeta-1-treated HK-2 cells assessed as Col4A1 mRNA level at 10 uM incubated for 24 to 48 hrs by qPCR analysis (reference value: 2.54 +/- 0.24); format: functional, Homo sapiens; conditions: time 24-48 hrs
HK-2 [19] = experiment: Anti-fibrotic activity in TGFbeta-1-treated HK-2 cells assessed as decrease in fibronectin level at 5 to 10 uM incubated for 24 to 48 hrs by Western blot analysis; format: functional, cell-based; conditions: Homo sapiens, dose 5-10 µM, time 24-48 hrs
HK-2 [20] = experiment: Anti-fibrotic activity in TGFbeta-1-treated HK-2 cells assessed as vimentin mRNA level at 10 uM incubated for 24 to 48 hrs by qPCR analysis (reference value: 3.73 +/- 0.47); format: functional, Homo sapiens; conditions: time 24-48 hrs
HK-2 [21] = experiment: Anti-fibrotic activity in TGFbeta-1-treated HK-2 cells assessed as fibronectin mRNA level at 10 uM incubated for 24 to 48 hrs by qPCR analysis (reference value: 11.31 +/- 2.49); format: functional, Homo sapiens; conditions: time 24-48 hrs
HK-2 [22] = experiment: Anti-fibrotic activity in TGFbeta-1-treated HK-2 cells assessed as Col4A1 mRNA level at 10 uM incubated for 24 to 48 hrs by qPCR analysis (reference value: 2.81 +/- 0.22); format: functional, Homo sapiens; conditions: time 24-48 hrs
HK-2 [23] = experiment: Anti-fibrotic activity in TGFbeta-1-treated HK-2 cells assessed as decrease in alpha-SMA level at 5 to 10 uM incubated for 24 to 48 hrs by Western blot analysis; format: functional, cell-based; conditions: Homo sapiens, dose 5-10 µM, time 24-48 hrs
HK-2 [24] = experiment: Anti-fibrotic activity in TGFbeta-1-treated HK-2 cells assessed as vimentin mRNA level at 10 uM incubated for 24 to 48 hrs by qPCR analysis (reference value: 2.2 +/- 0.28); format: functional, Homo sapiens; conditions: time 24-48 hrs
HK-2 [25] = experiment: Anti-fibrotic activity in TGFbeta-1-treated HK-2 cells assessed as decrease in fibronectin mRNA level at 10 uM incubated for 24 to 48 hrs by qPCR analysis relative to control; format: functional, Homo sapiens; parameters: scale not given: the % may be the effect or the level left; conditions: time 24-48 hrs
HK-2 [26] = experiment: Anti-fibrotic activity in TGFbeta-1-treated HK-2 cells assessed as decrease in vimentin level at 1 to 10 uM incubated for 24 to 48 hrs by Western blot analysis; format: functional, cell-based; conditions: Homo sapiens, dose 1-10 µM, time 24-48 hrs
HK-2 [27] = experiment: Anti-fibrotic activity in TGFbeta-1-treated HK-2 cells assessed as decrease in Col4A1 mRNA level at 10 uM incubated for 24 to 48 hrs by qPCR analysis relative to control; format: functional, Homo sapiens; parameters: scale not given: the % may be the effect or the level left; conditions: time 24-48 hrs
HK-2 [28] = experiment: Anti-fibrotic activity in TGFbeta-1-treated HK-2 cells assessed as fibronectin mRNA level at 10 uM incubated for 24 to 48 hrs by qPCR analysis (reference value: 2.16 +/- 0.31); format: functional, Homo sapiens; conditions: time 24-48 hrs
HK-2 [29] = experiment: Anti-fibrotic activity in TGFbeta-1-treated HK-2 cells assessed as decrease in vimentin mRNA level at 10 uM incubated for 24 to 48 hrs by qPCR analysis relative to control; format: functional, Homo sapiens; parameters: scale not given: the % may be the effect or the level left; conditions: time 24-48 hrs

Structure (SMILES): CC(C)=CCCC1(C)Oc2ccc(O)cc2-c2cc(O)ccc21 (racemic)
- Activity (HK-2 [1]): Non-toxic
- Activity (HK-2 [2]): Active
- Activity (HK-2 [3]): 0.54
- Activity (HK-2 [4]): 0.11
- Activity (HK-2 [5]): 0.65
- Activity (HK-2 [6]): 1
- Activity (HK-2 [7]): Active
- Activity (HK-2 [8]): Active
- viability at 48 h, 10 µM [9]: 70%
- Activity (HK-2 [10]): 0.74
- Activity (HK-2 [11]): 0.5
- Activity (HK-2 [12]): 4.08
- Activity (HK-2 [13]): 1.21
- Activity (HK-2 [14]): 0.66
- Activity (HK-2 [15]): 1.44
- Activity (HK-2 [16]): 0.24

Structure (SMILES): CC(C)=CCC[C@]1(C)Oc2ccc(O)cc2C2=CC(=O)CC[C@H]21 (racemic)
- Activity (HK-2 [17]): Active
- Activity (HK-2 [18]): 0.6
- Activity (HK-2 [19]): Active
- Activity (HK-2 [20]): 0.93
- Activity (HK-2 [21]): 0.39

Structure (SMILES): CC(C)=CCC[C@]1(C)Oc2ccc(O)cc2C2=CC(=O)CC[C@@H]21 (racemic)
- Activity (HK-2 [22]): 1.1
- Activity (HK-2 [23]): Active
- Activity (HK-2 [24]): 1.22
- Activity (HK-2 [25]): <=50%
- Activity (HK-2 [26]): Active
- Activity (HK-2 [27]): <=50%
- Activity (HK-2 [28]): 0.6
- Activity (HK-2 [29]): <=50%

Reference: ChEMBL document CHEMBL6074713, “Chemical Synthesis and Antifibrotic Properties of (±)-Cochlearol T, (±)-Ganocochlearin A, and (±)-Cochlearol Y” (ACS Med Chem Lett, 2024)
